The text below walks through data of patent US20250073238A1, “METHODS OF TREATING SYSTEMIC LUPUS ERYTHEMATOSUS USING BTK INHIBITORS” (BeiGene Switzerland GmbH, priority 2020, published 2025).

Series [1] has as its system NZBWF1/J lupus mouse model. As to the kind of experiment: Efficacy in NZBWF1/J lupus model. It is filed as in vivo. The settings on record: for Blood urea nitrogen (BUN) level: day 96, serum. The procedure: […] NZBWF1 female mice at 26 weeks of age were randomized into 7 groups with 10 mice per group, based on proteinuria level, anti-dsDNA IgG level and body weight. […] Treatments were administered by oral gavage (p.o.) in a volume of 10 ml/kg body weight.
Mice were also being monitored daily for clinical signs of toxicity for the duration of the study. Body weight for each animal was recorded twice per week and proteinuria was measured weekly. Proteinuria was assessed using URIT 1 vp strips, and was scored on a 0-4 scale with scored as follows: 0=trace, 1≥30 mg/dL, 2≥100 mg/dL, 3≥300 mg/dL, and 4≥500 mg/dL.
On the day 96th of treatment, blood was collected quickly by the heart punctures under carbon dioxide euthanasia. The 300-500 μL blood was transferred to the coagulation tube, and the upper serum samples were separated by centrifuge at 2,000 g for 10 minutes, and then stored in the refrigerator at −80° C. for later use. 110 μL serum was used for the detection of blood urea nitrogen level, and 25 μL serum was used for measurement of TNFα and IL-10 levels by Luminex.
The kidney was removed and fixed with 10% neutral buffer formalin solution. The tissue was taken from the modified block, dehydrated with alcohol step by step, embedded in paraffin, sectioned by slide slicer (about 3 μm thick), stained with hematoxylin-cosin (HE), and examined by light microscopy for pathological changes of the kidney tissue. Sections were blindly scored as the sum of three systems, including inflammation (0-4), glomerular damage (0-4), and sclerosis (0-4).

Series [2] in a line: Plasma drug exposure at steady state in MRL/lpr mice. Format: in vivo, mouse. The settings on record: 1.5-50 mg/kg BID oral. How it is done:
Plasma was collected by centrifugation at 5, 600 rpm for 7 minutes and was kept frozen at −80° C. until analysis. Bioanalysis was conducted at 3D BioOptima Co., Ltd. (Suzhou, China).

The subject of series [3] is SLE-cGVHD mouse model. Description: Efficacy in systemic lupus erythematosus like chronic graft-versus-host-disease (SLE-cGVHD) model. It is filed as in vivo. How it is done:
Splenocytes from DBA/2 mice were transplanted into 54 B6D2F1 mice intravenously at day −7 and day 0. 48 animals were randomly divided into 4 groups of 12 animals each group according to the inoculation order. Treatment was initiated the next day after randomization until the end of the 26th day. […] Treatments were administered by oral gavage (p.o.) in a volume of 10 ml/kg body weight.
Mice were monitored daily for clinical signs of toxicity for the duration of the study. Body weight for each animal was recorded twice per week. On day 15th of treatment, blood was collected from the orbital venous sinus under isoflurane/oxygen anesthesia and the serum samples were prepared. An anti-ds DNA IgG ELISA kit (Chondrex, Inc., Cat. 3031) was used to quantitate anti-ds DNA IgG levels in sera from individual mice.
On day 8th, b 15th and 22th of treatment, proteinuria was assessed by determination of urine albumin using URIT 1 vp strips (URIT, China), and was scored on a 0-4 scale with scored as follows: 0=trace, 1≥30 mg/dL, 2≥100 mg/dL, 3≥300 mg/dL, and 4≥500 mg/dL.
The difference between the mean values of proteinuria level, spleen-index and anti-ds DNA IgG level in treatment and vehicle group was analyzed for significance using One-way ANOVA (followed by Dunnett's test). P<0.05 was considered statistically significant.

The nature of series [4]: Plasma drug exposure at steady state in SLE-cGVHD mice. It is filed as in vivo, mouse. The settings on record: day 26, 10 and 20 mg/kg BID oral. The procedure:
Plasma was collected by centrifugation at 5, 600 rpm for 7 minutes. Bioanalysis was conducted at 3D BioOptima Co., Ltd. (Suzhou, China).

For series [5], the system named is MRL/MpJ-Fas^lpr/J (MRL/lpr) mouse model. As to the kind of experiment: Efficacy in MRL/MpJ-Fas^lpr/J (MRL/lpr) lupus model. Format: in vivo. The procedure: MRL/MpJ-Fas^lpr/J (MRL/lpr) mice purchased from Jackson laboratories were randomized into 6 groups with 11 mice per group, based on proteinuria level, anti-dsDNA IgG and body weight. […] Treatments were administered by oral gavage (p.o.) in a volume of 10 ml/kg body weight.
During the experimental period, the condition and mortality of the mice were recorded every day. Body weight for each animal was recorded twice per week.
Proteinuria was measured by determination of urine albumin weekly using URIT 1 vp strips (URIT, China), and was scored on a 0-4 scale with scored as follows: 0=trace, 1≥30 mg/dLl, 2≥100 mg/dL, 3≥300 mg/dLl, and 4≥500 mg/dL.
At the end of the study, blood was collected from the orbital venous sinus under isoflurane/oxygen anesthesia. The serum samples were prepared and analyzed for BUN level in serum. An anti-dsDNA IgG ELISA kit (Chondrex, Inc., Cat. 3031) was used to quantitate IgG level to anti-dsDNA IgG in sera from individual mice.
Mice were euthanized using carbon dioxide, spleen and body weight were measured at the end of the study. Spleen index (ratio of spleen weight to body weight) was calculated.
The kidneys were collected and preserved in 10% NBF, the tissues were trimmed, dehydrated, embedded in paraffin, sectioned (˜3 μm) and stained with HE. The histopathology exam was performed.
The difference between the mean values of proteinuria level, spleen-index, BUN level, kidney histopathology score and anti-dsDNA IgG level in treatment and vehicle group was analyzed for significance using One-way ANOVA (followed by Dunnett's test). P<0.05 was considered statistically significant.

Where [6] appears, read: MMF 100 mg/kg QD p.o., compared with the control group.
[7] abbreviates: Compound 1 10 mg/kg BID p.o., day 96.
Where [8] appears, read: Compound 1 3 and 10 mg/kg BID p.o.
The mark [9] stands for this setting: 1.5, 5, 15 and 50 mg/kg BID oral, end of study.

Take `COc1c(C)c2c(c(O)c1C/C=C(\C)CCC(=O)OCCN1CCOCC1)C(=O)OC2` [MMF, mycophenolate mofetil, reference compound]: in series [1] (MMF 100 mg/kg QD p.o.), the Renal histopathology score entry was “not able to significantly inhibit”, the Spleen mass result is listed as “not able to significantly inhibit” and the “Blood urea nitrogen (BUN) level” value is on record as “remarkably inhibited”. Moreover, in series [1] (setting [6]), the “IL-10 level in serum” value is “lower level of TNFα and IL-10 with no statistical significance”; the “TNFα level in serum” value is “lower level of TNFα and IL-10 with no statistical significance”.

Consider `C=CC(=O)N1CCC([C@@H]2CCNc3c(C(N)=O)c(-c4ccc(Oc5ccccc5)cc4)nn32)CC1` [Compound 1, (S)-7-(1-acryloylpiperidin-4-yl)-2-(4-phenoxyphenyl)-4,5,6,7-tetra-hydropyrazolo[1,5-a]pyrimidine-3-carboxamide], for which the “Drug exposure AUC0-8h” value is on record as “increased dose independently” in series [2] and “increased dose dependently” in series [4]. Further, the “Drug exposure Cmax” value in series [2] is listed as “increased dose independently”; in series [4] it was “increased dose dependently”. Also, the “Level of anti-dsDNA IgG in serum” value in series [3] (10 and 20 mg/kg BID oral, day 15 of treatment, ELISA) was “inhibited”. Also, the Proteinuria level result in series [3] (10 and 20 mg/kg BID oral, day 22 of treatment) was “significantly reduced”. Also, the “Disease (overall)” value in series [3] (SLE-cGvHD mouse model, all results) is reported as “ameliorated disease”. Besides, in series [1] (setting [7]), the “Secretion of IL-10 (serum level)” value was “dramatically inhibited”. Besides, the “Secretion of TNFα (serum level)” value in series [1] (setting [7]) is on record as “dramatically inhibited”. In addition, the Renal histopathology score entry in series [1] (Compound 1 0.1-10 mg/kg BID p.o.) is recorded as “inhibited renal histopathology score in a dose-dependent manner”. Also, the Proteinuria entry in series [1] (Compound 1 0.1-10 mg/kg BID p.o., vs. vehicle) is recorded as “dose-dependently suppressed”; in series [1] (Compound 1 0.1 and 0.3 mg/kg BID p.o., compared with MMF 100 mg/kg QD), “less effective than MMF”; in series [1] (Compound 1 1, 3 and 10 mg/kg BID p.o., compared with MMF 100 mg/kg QD), “no significant difference when compared with MMF”; in series [5] (1.5, 5, 15 and 50 mg/kg BID oral, day 118), “significantly decreased”. Further, the Spleen weight entry in series [1] (setting [8]) is on record as “dramatically inhibited”. Besides, the “Blood urea nitrogen (BUN) level” value in series [1] (setting [8]) is listed as “remarkably inhibited”. Also, the “Anti-lupus effect compared with MMF” value in series [1] (Compound 1 orally 3 and 10 mg/kg BID) is “stronger anti-lupus effect”. The “Anti-lupus effect (overall)” value is listed as “strong anti-lupus effect” in series [1] (NZBWF1/J lupus mouse model, all results) and “strong anti-lupus effect” in series [5] (MRL/lpr mouse model, all results). Moreover, the “Efficacy (dose dependence)” value in series [5] (1.5 mg/kg to 50 mg/kg twice a day) is listed as “dose-dependent efficacy”. Moreover, the “Protection from lupus nephritis” value in series [5] (1.5, 5, 15 and 50 mg/kg BID oral, 17 weeks) is “significantly protected”. Also, the Kidney histopathological score result in series [5] (setting [9]) is “reduced”. For the same compound, in series [5] (setting [9]), the “Serum blood urea nitrogen (BUN) level” value is listed as “significantly decreased”. In addition, the “Anti-dsDNA IgG level in serum” value in series [5] (1.5, 5, 15 and 50 mg/kg BID oral, end of study, compared with vehicle) is given as “inhibited”.
